pIC50: −log10 of the molar value. Read-outs that look alike come from different tables or passages of the source. A value given as a limit tells only on which side of the number the result lay.

In series [1] the target is EGFR (T790M/L858R/C797S) (Homo sapiens, UniProt P00533, C797S/L858R/T790M). Description: EGFR (T790M/L858R/C797S) kinase activity inhibition, Caliper mobility shift assay. The series is classed as biochemical. The settings on record: kinase 2.5 nM, ATP 40 μM. On the procedure: The basic method is the same as ALK activity test method 2. The test concentration of the compound starts at 2 μM, and is diluted 5 folds into 6 (7 for individual compounds) concentration points. […] Add 30 μL of stop solution containing EDTA to stop the kinase reaction. Use Caliper EZ Reader to read the conversion rate. Inhibition rate %=(Average positive control conversion rate %−Sample conversion rate %/(Average positive control conversion rate %−Average negative control conversion rate %). Among them: negative control wells represent the conversion rate readings without enzyme activity; positive control wells represent the conversion rate readings of wells without compound inhibition. Take the log value of the concentration as the X-axis, and the percentage inhibition rate on the Y-axis. Log (inhibitor) vs. response—Variable slope of analysis software GraphPad Prism 5 was used to fit the curve to obtain the IC50 value of each compound on the enzyme activity. Calculation formula: Y=Bottom+(Top−Bottom)/(1+10^((Log IC50−X)*HillSlope)).
EGFR (T790M/L858R/C797S), sequence (P00533 25-1210 T790M/C797S/L858R): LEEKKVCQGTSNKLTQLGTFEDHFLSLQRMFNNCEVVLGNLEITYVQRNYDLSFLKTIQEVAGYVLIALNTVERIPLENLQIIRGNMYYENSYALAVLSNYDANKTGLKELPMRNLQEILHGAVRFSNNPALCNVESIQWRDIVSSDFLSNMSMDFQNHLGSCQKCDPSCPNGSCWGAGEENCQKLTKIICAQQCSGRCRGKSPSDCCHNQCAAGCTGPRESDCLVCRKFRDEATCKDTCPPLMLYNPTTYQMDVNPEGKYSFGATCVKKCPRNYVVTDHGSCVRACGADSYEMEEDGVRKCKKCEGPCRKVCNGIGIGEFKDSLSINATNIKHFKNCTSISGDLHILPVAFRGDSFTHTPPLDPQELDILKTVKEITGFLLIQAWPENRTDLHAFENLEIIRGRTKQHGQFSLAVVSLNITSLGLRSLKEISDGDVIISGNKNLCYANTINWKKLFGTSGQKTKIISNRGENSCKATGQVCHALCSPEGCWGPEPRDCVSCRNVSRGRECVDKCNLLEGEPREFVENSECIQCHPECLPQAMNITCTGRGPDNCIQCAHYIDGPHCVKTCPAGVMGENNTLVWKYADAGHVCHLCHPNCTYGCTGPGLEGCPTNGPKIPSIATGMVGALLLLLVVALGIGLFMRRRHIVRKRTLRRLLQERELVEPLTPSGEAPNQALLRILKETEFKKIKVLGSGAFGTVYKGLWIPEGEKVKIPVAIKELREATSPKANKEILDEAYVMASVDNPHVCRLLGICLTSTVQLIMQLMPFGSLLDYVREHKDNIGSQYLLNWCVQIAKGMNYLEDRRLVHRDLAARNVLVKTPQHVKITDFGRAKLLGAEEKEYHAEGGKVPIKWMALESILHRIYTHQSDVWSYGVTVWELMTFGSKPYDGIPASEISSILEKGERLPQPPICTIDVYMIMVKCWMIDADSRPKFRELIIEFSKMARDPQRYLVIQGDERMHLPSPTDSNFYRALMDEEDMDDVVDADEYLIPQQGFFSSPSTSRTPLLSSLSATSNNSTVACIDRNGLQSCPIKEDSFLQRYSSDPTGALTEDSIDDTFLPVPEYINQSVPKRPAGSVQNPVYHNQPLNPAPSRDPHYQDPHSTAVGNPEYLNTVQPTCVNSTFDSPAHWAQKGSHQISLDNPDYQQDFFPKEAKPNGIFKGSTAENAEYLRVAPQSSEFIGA

For series [2], the target named is MAP4K1 (HPK1) (Homo sapiens, UniProt Q92918). The experiment in a line: MAP4K1 (HPK1) kinase activity inhibition, Caliper mobility shift assay. The format is biochemical. The settings on record: kinase 1.25 nM, ATP 10.1 μM. On the procedure: 4. MAP4K1 (HPK1) Kinase Activity Inhibition Experiment: Caliper mobility shift assay was used to detect the inhibitory effect of the compound on MAP4K1 (HPK1) kinase activity. The test concentration of the compound starts at 500 nM, and is diluted 5 folds into 5 concentration points. Use a dispenser Echo 550 to transfer 250 nL 100-fold final concentration of the compound to the target plate 3573, add 10 μL of MAP4K1 (HPK1) kinase solution with a final concentration of 1.25 nM, and incubate for 10 minutes at room temperature (the negative control well contains 10 μL kinase buffer and 250 nL 100% DMSO; the positive control well contains 10 μL kinase solution and 250 nL 100% DMSO). On the kinase MAP4K1 (HPK1), add 15 μL of ATP with a final concentration of 10.1 μM and 3 μM substrate peptide No. 25 mixed solution to react for 120 minutes. Add 30 μL of stop solution containing EDTA to stop the kinase reaction. Use Caliper EZ Reader to read the conversion rate. Inhibition rate %=(Average positive control conversion rate %−Sample conversion rate %/(Average positive control conversion rate %−Average negative control conversion rate %). Among them: negative control wells represent the conversion rate readings without enzyme activity; positive control wells represent the conversion rate readings of wells without compound inhibition. Take the log value of the concentration as the X-axis, and the percentage inhibition rate on the Y-axis. Log (inhibitor) vs. response—Variable slope of analysis software GraphPad Prism 5 was used to fit the curve to obtain the IC50 value of each compound on the enzyme activity. Calculation formula: Y=Bottom+(Top−Bottom)/(1+10 ^((Log IC50−X)*HillSlope)).
MAP4K1 (HPK1), sequence (Q92918 whole entry): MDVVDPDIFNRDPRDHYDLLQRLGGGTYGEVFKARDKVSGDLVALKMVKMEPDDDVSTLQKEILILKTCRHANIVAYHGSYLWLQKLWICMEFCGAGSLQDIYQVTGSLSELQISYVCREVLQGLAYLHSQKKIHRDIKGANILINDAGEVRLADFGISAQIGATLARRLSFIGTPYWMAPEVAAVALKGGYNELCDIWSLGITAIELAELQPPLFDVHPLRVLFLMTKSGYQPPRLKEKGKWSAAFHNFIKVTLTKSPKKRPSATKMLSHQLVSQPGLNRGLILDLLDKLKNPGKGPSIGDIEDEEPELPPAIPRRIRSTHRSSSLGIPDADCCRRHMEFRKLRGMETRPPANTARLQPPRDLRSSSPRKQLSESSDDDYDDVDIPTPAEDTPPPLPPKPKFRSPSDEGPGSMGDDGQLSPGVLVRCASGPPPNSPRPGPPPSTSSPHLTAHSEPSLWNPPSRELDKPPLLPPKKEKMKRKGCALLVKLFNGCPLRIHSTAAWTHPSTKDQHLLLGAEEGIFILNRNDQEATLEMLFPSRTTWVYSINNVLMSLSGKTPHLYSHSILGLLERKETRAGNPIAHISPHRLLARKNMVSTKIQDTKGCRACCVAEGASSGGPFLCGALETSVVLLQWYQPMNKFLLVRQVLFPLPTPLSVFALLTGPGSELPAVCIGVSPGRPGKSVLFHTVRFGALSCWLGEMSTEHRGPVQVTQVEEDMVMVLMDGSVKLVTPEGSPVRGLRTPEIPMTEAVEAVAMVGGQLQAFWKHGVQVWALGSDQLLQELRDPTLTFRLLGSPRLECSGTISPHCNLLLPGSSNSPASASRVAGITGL

For series [3], the target named is Ba/F3_EGFR del19/T790M/C797S cells (Homo sapiens, UniProt P00533, T790M/C797S, cells depend on it, form not given). Description: Ba/F3_EGFR (del19-T790M-C797S) cell proliferation inhibition, CTG, method 1. The note with it: 700 cells/well, 72 h, read-out: Ba/F3_EGFR (del19-T790M-C797S) cell proliferation inhibition (IC50 value) Method 1. The series is classed as cell-based. The procedure: The cells were cultured in a 37° C., 5% CO2 incubator.
Ba/F3_EGFR del19/T790M/C797S cells, sequence (P00533 with tags, fused parts or gaps DEL746-750/T790M/C797S, form open): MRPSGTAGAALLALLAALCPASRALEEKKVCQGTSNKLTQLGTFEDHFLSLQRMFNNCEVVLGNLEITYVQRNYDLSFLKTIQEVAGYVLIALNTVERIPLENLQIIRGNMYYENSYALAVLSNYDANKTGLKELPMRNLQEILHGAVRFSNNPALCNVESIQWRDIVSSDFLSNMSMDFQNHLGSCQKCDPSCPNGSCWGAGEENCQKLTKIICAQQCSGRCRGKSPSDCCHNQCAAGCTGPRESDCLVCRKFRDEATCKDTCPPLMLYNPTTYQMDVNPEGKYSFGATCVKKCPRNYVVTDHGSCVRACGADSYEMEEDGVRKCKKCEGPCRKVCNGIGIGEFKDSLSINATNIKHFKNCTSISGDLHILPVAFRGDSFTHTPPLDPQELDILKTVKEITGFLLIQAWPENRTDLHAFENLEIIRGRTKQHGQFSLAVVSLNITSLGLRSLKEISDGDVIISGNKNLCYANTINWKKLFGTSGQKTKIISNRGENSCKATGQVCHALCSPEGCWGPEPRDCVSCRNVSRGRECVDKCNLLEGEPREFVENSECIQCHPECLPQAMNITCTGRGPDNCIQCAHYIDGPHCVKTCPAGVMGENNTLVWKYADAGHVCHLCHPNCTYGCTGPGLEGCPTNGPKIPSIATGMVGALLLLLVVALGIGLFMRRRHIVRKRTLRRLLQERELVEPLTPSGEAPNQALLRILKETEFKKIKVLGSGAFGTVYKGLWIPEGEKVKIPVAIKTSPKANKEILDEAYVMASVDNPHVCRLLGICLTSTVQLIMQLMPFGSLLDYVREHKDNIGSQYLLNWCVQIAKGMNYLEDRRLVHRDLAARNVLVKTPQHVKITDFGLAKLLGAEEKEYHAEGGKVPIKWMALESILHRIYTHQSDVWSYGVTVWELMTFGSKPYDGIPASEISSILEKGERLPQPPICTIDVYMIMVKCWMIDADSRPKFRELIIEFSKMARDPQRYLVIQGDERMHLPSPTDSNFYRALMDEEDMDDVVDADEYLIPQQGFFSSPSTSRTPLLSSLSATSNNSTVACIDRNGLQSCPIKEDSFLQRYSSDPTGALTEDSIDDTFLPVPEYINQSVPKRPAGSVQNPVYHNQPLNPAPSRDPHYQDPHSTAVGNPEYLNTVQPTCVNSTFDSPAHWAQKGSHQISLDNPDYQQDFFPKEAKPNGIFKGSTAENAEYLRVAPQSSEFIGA
Cell plating and compound treatment: 1) Cells are routinely cultured until the cell saturation is 80%-90%, and when the number reaches the requirement, the cells are collected. 2) Resuspend in the corresponding fresh medium, take a small amount of cells to count, and prepare a cell suspension with a suitable density. 3) Inoculate the cell suspension into a 384-well plate at 700 cells/well, 30 μL per well. 4) Use Echo to add the compound to the corresponding cell well. The maximum starting concentration of the compound is 1-10 μM, 3 folds dilution, 8 concentrations.
CTG method detection: 1) Add 30 μL of CTG reagent (CelltiterGlo kit) to each well, and let it stand for 30 minutes at 37° C. and 5% CO2 in the dark. 2) Use Envision instrument to read the chemiluminescence signal value.
Data analysis: IC50 results are analyzed by GraphPad Prism 6 software. […] X: log value of compound concentration; Y: inhibition rate (% inhibition); inhibition rate (% inhibition)=(blank control well reading−compound well reading)/(blank control well reading−positive control reading)×100.

In series [4] the target is EGFR (C797S) (Homo sapiens, UniProt P00533, C797S). Description: EGFR (C797S) kinase activity inhibition, Lantha screen Assay. The series is classed as biochemical. The settings on record: kinase 10 nM, ATP 0.1 μM. The procedure: 1. EGFR (C797S) Kinase Activity Inhibition Experiment: The Lantha screen Assay method was used to test the inhibitory activity of the compounds at a kinase EGFR (C797S) concentration of 10 nM and an ATP concentration of 0.1 μM. The control samples were Staurosporine. Experimental Steps: […] 2) Control sample Staurosporine and test samples preparation: Staurosporine and the compounds of the embodiment of the present invention are formulated into a gradient concentration solution in 100% DMSO, and diluted to 10% DMSO with the above-mentioned buffer, and added to a 384-well plate. For example, if the initial concentration of the compound is 10 μM, 100% DMSO is used to prepare a 1000 μM solution, and 10 concentration gradients are diluted, and 100 nL solution is transferred to a 384-well plate with Echo*LIQUID HANDLE RS (LABCYTE, USA). […] Transfer 5 μL to the 384-well plate and incubate with the compound for 10-15 minutes. […] Transfer 5 μL to the 384-well plate to initiate the reaction, and incubate at room temperature for 30 minutes. [table] 5) Use TR-Fret dilution buffer to prepare 2-fold detection solution. The final concentration of Antibody is 2 nM and the final concentration of EDTA is 10 mM. Transfer 10 μL of detection solution to the reaction wells of the 384-well plate, shake and mix, and incubate at room temperature for 60 min. 6) Read the ratio of excitation at 340 nm and emission at 520 nm to 495 nm on Envision, and calculate the inhibition rate. 7) Fit IC50 with XL-fit software.

The target of series [5] is ALK (Homo sapiens, UniProt Q9UM73). Description: ALK kinase activity inhibition, Caliper mobility shift assay, method 1. The format is biochemical. The procedure:
2. ALK Kinase Activity Inhibition Experiment: Method 1: In vitro enzymatic activity of ALK was measured using Caliper mobility shift assay. […] Add 10 μL of 2.5-fold enzyme solution and incubate at room temperature for 10 minutes, then add 10 μL of 2.5-fold substrates (Peptide FAM-P22 and ATP) solution. […] Read conversion rate data on Caliper EZ Reader II (Caliper Life Sciences). Convert the conversion rate into inhibition rate (% inhibition=(max−conversion rate)/(max−min)*100). Max refers to the conversion rate of the DMSO control, and min refers to the conversion rate without enzyme activity. With the compound concentration and inhibition rate on the abscissa and ordinate, draw the curve, use XLFit excel add-in version 5.4.0.8 software to fit the curve and calculate the IC50.

The nature of series [6]: Pharmacokinetic study in rats after intragastrical administration. The series is classed as in vivo. The settings on record: male, rat, plasma, po, SD rats; for AUC(0-t): read-out: AUC0-24 h. On the procedure:
Example 55: Pharmacokinetic Study in Rats
Instruments: XEVO TQ-S LC/MS instrument produced by Waters. All measurement data is collected and processed by Masslynx V4.1 software, and the data is calculated and processed by Microsoft Excel. Using WinNonLin 8.0 software, the statistical moment method was used to calculate the pharmacokinetic parameters. Mainly include kinetic parameters Tmax, T1/2, Cmax, AUClast etc. […] Injection volume: 5 μL.
Animals: 3 male SD rats with a weight range of 200-220 g. After purchase, they will be kept in the laboratory of the Experimental Animal Center for 2 days and then used. They will be fasted for 12 hours predose and 4 hours after dosing. Drinking water is free during the test. After the rats were gavage, blood samples were taken according to the established time point.
Solvent: 0.5% Methylcellulose (aqueous solution containing 0.4% Tween 80 and 1% ethanol). Preparation of the solution for intragastrical administration: accurately weigh the compound, add it to the solvent, and ultrasonically at room temperature for 5 minutes to completely dissolve the drug, and prepare a 0.3 mg/ml medicinal solution.
Pharmaceutical samples: representative compounds of the structure shown in the patented formula (I) of the present invention, generally, multiple samples with similar structures (with a molecular weight difference of more than 2 units) are taken, accurately weighed, and administered together (cassette PK). In this way, multiple compounds can be screened at the same time and their oral absorption rates can be compared. A single administration was also used to study the pharmacokinetics of the drug sample in rats.
After intragastrical administration, blood was taken from the orbit at 0.25, 0.5, 1, 2, 4, 9, 12 and 24 hours, and placed in a plastic centrifuge tube pretreated with sodium heparin. After centrifugation, the supernatant plasma was used for LC-MS/MS analysis.
Accurately weigh the compounds to prepare different concentrations, perform quantitative analysis on mass spectrometry to establish a standard curve, and then test the concentration of the above-mentioned compound in the plasma to obtain the compound concentration at different time points. All measurement data are collected and processed by relevant software, and the statistical moment method is used to calculate the pharmacokinetic parameters (mainly including kinetic parameters Tmax, T1/2, Cmax, AUClast etc). The results are as follows:
Table 7: Pharmacokinetic Parameters of the Compounds after Intragastrical Administration in SD Rats

ALK, sequence (Q9UM73 19-1620): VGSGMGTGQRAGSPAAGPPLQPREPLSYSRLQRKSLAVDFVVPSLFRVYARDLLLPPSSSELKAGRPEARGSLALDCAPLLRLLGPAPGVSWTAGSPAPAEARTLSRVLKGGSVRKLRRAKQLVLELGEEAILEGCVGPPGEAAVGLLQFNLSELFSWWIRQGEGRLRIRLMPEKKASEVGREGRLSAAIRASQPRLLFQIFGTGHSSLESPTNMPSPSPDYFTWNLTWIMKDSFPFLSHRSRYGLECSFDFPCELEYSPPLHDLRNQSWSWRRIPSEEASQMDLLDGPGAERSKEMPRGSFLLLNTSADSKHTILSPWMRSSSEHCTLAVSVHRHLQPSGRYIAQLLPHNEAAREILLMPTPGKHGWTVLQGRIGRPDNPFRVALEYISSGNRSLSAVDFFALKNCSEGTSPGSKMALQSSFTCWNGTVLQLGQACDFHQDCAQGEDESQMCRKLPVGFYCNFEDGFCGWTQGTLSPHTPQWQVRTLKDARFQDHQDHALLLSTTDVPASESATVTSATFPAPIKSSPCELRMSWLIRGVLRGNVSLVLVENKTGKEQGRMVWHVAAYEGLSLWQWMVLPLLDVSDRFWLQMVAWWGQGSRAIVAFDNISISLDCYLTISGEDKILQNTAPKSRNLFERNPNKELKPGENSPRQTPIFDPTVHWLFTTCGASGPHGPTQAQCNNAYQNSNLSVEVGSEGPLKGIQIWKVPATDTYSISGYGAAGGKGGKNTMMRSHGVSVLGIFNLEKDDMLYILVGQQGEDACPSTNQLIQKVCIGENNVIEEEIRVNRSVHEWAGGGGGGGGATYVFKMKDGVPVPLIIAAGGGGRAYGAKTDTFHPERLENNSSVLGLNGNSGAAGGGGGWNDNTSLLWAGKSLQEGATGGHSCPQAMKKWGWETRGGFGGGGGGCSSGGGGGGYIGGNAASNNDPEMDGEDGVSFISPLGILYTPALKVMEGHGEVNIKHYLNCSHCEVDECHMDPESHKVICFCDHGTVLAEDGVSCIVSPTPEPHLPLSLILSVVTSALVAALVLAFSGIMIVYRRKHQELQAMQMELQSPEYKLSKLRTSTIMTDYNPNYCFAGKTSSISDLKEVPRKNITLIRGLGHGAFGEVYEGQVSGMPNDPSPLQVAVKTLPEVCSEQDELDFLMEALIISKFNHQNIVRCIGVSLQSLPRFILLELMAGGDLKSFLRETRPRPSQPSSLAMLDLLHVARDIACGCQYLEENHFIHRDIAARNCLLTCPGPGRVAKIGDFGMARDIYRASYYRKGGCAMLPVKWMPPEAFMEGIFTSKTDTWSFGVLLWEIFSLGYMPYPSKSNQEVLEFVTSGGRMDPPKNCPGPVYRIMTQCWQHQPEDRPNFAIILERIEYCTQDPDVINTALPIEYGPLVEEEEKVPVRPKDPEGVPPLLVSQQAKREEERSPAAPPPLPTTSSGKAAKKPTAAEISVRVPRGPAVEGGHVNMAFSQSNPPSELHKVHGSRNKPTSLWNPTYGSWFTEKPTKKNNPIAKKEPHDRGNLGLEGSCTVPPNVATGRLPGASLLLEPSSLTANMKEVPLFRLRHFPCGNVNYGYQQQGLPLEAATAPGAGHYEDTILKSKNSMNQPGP

One may read the pIC50 as the IC50 on a negative log10 scale, so that one unit is a factor of ten. Regarding `C=CC(=O)Nc1cc(Nc2ncc(Cl)c(Nc3ccccc3P(C)(C)=O)n2)cc2c1N1CCN(C)C[C@@H]1CO2` [Compound 29R], the pIC50 is 7.82 to 8.52 in series [1] and at least 9.00 in series [2]. The GI50 in series [3] was 0.02 to 0.1 µM.
Turning to `CP(C)(=O)c1ccccc1Nc1nc(Nc2ccc3c(c2)OC[C@H]2COCCN32)ncc1Cl` [Compound 12R], the pIC50 in series [4] was 6.60 to 7.30; in series [5], 6.60 to 7.30; in series [2] it was at least 9.00. Also, the GI50 in series [3] lay within 0.02 to 0.1 µM.
For `CN(C)C/C=C/C(=O)N1CCN2c3ccc(Nc4ncc(Cl)c(Nc5ccccc5P(C)(C)=O)n4)cc3OC[C@H]2C1` [Compound 18R], the figures for the pIC50 in series [1] and in series [2] were over 8.52 and at least 9.00, respectively. For the same compound, in series [3], the GI50 is 0.1 to 0.2 µM.
As usually defined, the Cmax is the highest concentration seen after dosing. The Tmax is the time from dosing to the highest level. As usually defined, the half-life is the time needed for the level to fall by half in the phase considered. Read a high half-life as slow loss. With `CN1CCN2c3ccc(Nc4ncc(Cl)c(Nc5ccccc5P(C)(C)=O)n4)cc3OC[C@H]2C1` [Compound 1R], the pIC50 in series [4] is 7.30 to 9.00. Also, the negative logarithm of the IC50 (pIC50) in series [5] was 7.30 to 9.00. The GI50 in series [3] was under 0.02 µM. Further, in series [6] (4 mg/kg), the peak level (Cmax) was 0.0231 µg/mL, the time to peak (Tmax) amounted to 1.08 h, the half-life was 12.7 h and the AUC(0-t) worked out at 0.102 µg·h/mL.
Consider `CP(C)(=O)c1ccccc1Nc1nc(Nc2ccc3c(c2)OC[C@H]2CN(C4CCNCC4)CCN32)ncc1Cl` [Compound 21R], for which the pIC50 in series [1] was over 8.52; in series [2] it was at least 9.00. Moreover, the GI50 in series [3] was over 0.2 µM.
Turning to `CP(C)(=O)c1ccccc1Nc1nc(Nc2ccc3c(c2)OC[C@H]2CN(c4ccccc4)CCN32)ncc1Cl` [Compound 16R], the negative logarithm of the IC50 (pIC50) was 6.60 to 7.30 in series [4], 6.60 to 7.30 in series [5], 7.00 to 7.82 in series [1] and 8.00 to 9.00 in series [2].
Take `CN(C)CCN1CCN2c3ccc(Nc4ncc(Cl)c(Nc5ccccc5P(C)(C)=O)n4)cc3OC[C@H]2C1` [Compound 14R]: the negative-log IC50 (pIC50) was 6.60 to 7.30 in series [4], 6.60 to 7.30 in series [5] and 8.00 to 9.00 in series [2]. The GI50 in series [3] fell in the range of 0.1 to 0.2 µM.
Consider `C=CC(=O)N1CCC(N2CCN3c4ccc(Nc5ncc(Cl)c(Nc6ccccc6P(C)(C)=O)n5)cc4OC[C@H]3C2)CC1` [Compound 22R], for which the negative logarithm of the IC50 (pIC50) is 7.82 to 8.52 in series [1] and at least 9.00 in series [2]. In series [3], the GI50 is under 0.02 µM.
As for `CC(=O)N1CCC(N2CCN3c4c(C)cc(Nc5ncc(Cl)c(Nc6ccccc6P(C)(C)=O)n5)cc4OC[C@@H]3C2)CC1` [Compound 32S], in series [1], the negative-log IC50 (pIC50) was over 8.52. Besides, the pIC50 in series [2] was at least 9.00. In addition, in series [3], the GI50 is 0.02 to 0.1 µM. Moreover, in series [6] (3 mg/kg), the Cmax was found to be 0.352 µg/mL, the time to peak (Tmax) turned out to be 3.33 h, the half-life was 2.22 h and the AUC(0-t) was determined as 3.26 µg·h/mL.
For the compound `CP(C)(=O)c1ccccc1Nc1nc(Nc2ccc3c(c2)OC[C@H]2CN(c4cccnc4)CCN32)ncc1Cl` [Compound 15R], the pIC50 in series [4] is 6.60 to 7.30; in series [5], 6.60 to 7.30; in series [2], 8.00 to 9.00.
`Cc1cc(Nc2ncc(Cl)c(Nc3ccccc3P(C)(C)=O)n2)cc2c1OC[C@H]1CNCCN21` [Compound 24R]: the results for the negative-log IC50 (pIC50) in series [1] and in series [2] were 7.82 to 8.52 and 8.00 to 9.00, respectively. In addition, the GI50 in series [3] was in the range of 0.02 to 0.1 µM.
The corresponding values for `Cc1cc(Nc2ncc(Cl)c(Nc3ccccc3P(C)(C)=O)n2)cc2c1N1CCNC[C@H]1CO2` [Compound 23S] are over 8.52, at least 9.00 and under 0.02 µM.

The values are drawn from US20220153766A1, “CONDENSED TRICYCLIC COMPOUND USED AS KINASE INHIBITOR” (Hangzhou Innogate Pharma Co., Ltd., priority 2019, published 2022).
